In series [1] the test system is DU-145. The series can be described thus: Cytotoxicity against human DU145 cells. Format: functional.
Series [2] has as its system NCI-H460. The experiment in a line: Cytotoxicity against human NCI-H460 cells. Type of series: functional.
Series [3] deals with Vero. The series can be described thus: Cytotoxicity against african green monkey Vero cells after 72 hrs by MTS assay. The following applies: Chlorocebus sabaeus, Vero, 72 h. A general note: Tetrazolium dyes change colour on reduction, which living cells bring about.
Series [4] deals with Leishmania amazonensis. The series can be described thus: Antileishmanial activity against Leishmania amazonensis MHOM/BR/76/LTB-012 amastigotes infected BALB/c mouse macrophages after 48 hrs by MTT assay. Type of series: functional, organism-based. Particulars: MHOM/BR/76/LTB-012, 48 h.
The subject of series [5] is Mycobacterium tuberculosis. The experiment in a line: Antitubercular activity against Mycobacterium tuberculosis H37Rv ATCC 27294 after 7 days by microplate alamar blue assay. Type of series: functional. Particulars: H37Rv ATCC 27294, 168 h. On the technique in general: The colour change of resazurin is a common sign of viable cells or microbes.
In series [6] the test system is HT-29. The series can be described thus: Cytotoxicity against human HT-29 cells. Format: functional.
The nature of series [7]: Selectivity index, ratio of IC50 for BALB/c mouse macrophages to IC50 for Leishmania amazonensis MHOM/BR/76/LTB-012.
Series [8] concerns Trypanosoma cruzi. The series can be described thus: Antitrypanosomal activity against Trypanosoma cruzi tulahuen C4 trypomastigotes infected in african green monkey Vero cells assessed as CPRG cleavage after 120 hrs by microplate reader. Format: functional, organism-based.
For series [9], the system named is K562. The experiment in a line: Cytotoxicity against human K562 cells. Type of series: functional.
Series [10] in a line: Selectivity index, ratio of IC50 for african green monkey Vero cells to MIC for Mycobacterium tuberculosis H37Rv ATCC 27294 by microplate alamar blue assay. Format: functional.
The nature of series [11]: Cytotoxicity against BALB/c mouse macrophages after 48 hrs by trypan blue dye exclusion method. Format: cell-based. The following applies: Macrophage.
Series [12] relates to MCF7. The series can be described thus: Cytotoxicity against human MCF7 cells. Format: functional.
Series [13] is described as follows: Selectivity index, ratio of IC50 for african green monkey Vero cells to IC50 for Trypanosoma cruzi tulahuen C4. The following applies: Vero cells.
A short description of series [14]: Cytotoxicity against BALB mouse 3T3 cells. Particulars: BALB 3T3 cells. Type of series: cell-based.
The subject of series [15] is M14. The series can be described thus: Cytotoxicity against human M14 cells. Format: functional.

The structures appear in SMILES notation. ≈ marks a conversion by molar mass, not a printed value.

Usually GI50 stands for the concentration giving 50% growth inhibition. As usually defined, the IC50 is the concentration that gives 50% inhibition. As a reminder, the MIC is the least concentration at which growth counts as inhibited.

For `C(=N\Nc1ncnc2sc3c(c12)CCCC3)/c1ccc[nH]1`, the GI50 in series [1] is 4.6 µM; in series [2], 1.7 µM; in [6], 3.8 µM; in series [9], 1.9 µM; in [12] it was 0.4 µM; in series [14] it was 2.2 µM. For the same molecule, in series [15], the GI50 stood at 2.5 µM. Besides, the IC50 in series [3] worked out at 3.4 µM; in [4] it was 10.1 µM; in [8], 22.9 µM; in series [11] it was 9.7 µM. The molecule also registered an MIC in [5] of 20.8 µM (≈ 6.19 µg/mL). Further, the “Ratio IC50” value was 1 in [7] and 0.6 in series [10]. In [13], the selectivity ratio was 0.1.

Consider `CC(C)=NNc1ncnc2sc3c(c12)CCCC3`, for which the concentration for 50% growth inhibition (GI50) in series [1] is 11.6 µM; in [2], 9.3 µM; in series [6] it was 33 µM; in series [9] it was 13.6 µM; in [12], 12.2 µM; in [14] it was above 3.5 µM. Besides, in [15], it took 23.3 µM to inhibit growth by half (GI50). For the same molecule, the IC50 is 38.4 µM in series [3], 40.6 µM in series [4], 14.1 µM in [8] and 238 µM in series [11]. In series [5], this molecule showed an MIC of 240 µM (≈ 62.4 µg/mL). In addition, the “Ratio IC50” value in [7] is 5.9; in series [10], 0.5. The selectivity ratio in series [13] worked out at 2.7.

With `CC(C)(C)/C=N/Nc1ncnc2sc3c(c12)CCCC3`, the GI50 in series [1] was 25.1 µM; in series [2], 24.5 µM; in series [6], 33 µM; in series [9] it was 27.5 µM; in [12] it was 26 µM; in series [14], 7.3 µM. In series [15], this molecule came in with a 50% growth inhibitory concentration (GI50) of 32.7 µM. Further, the IC50 is 113 µM in series [4], above 25 µM in series [8] and 176 µM in [11]. This molecule came in with a minimal inhibitory concentration (MIC) in series [5] of 299 µM (≈ 86.3 µg/mL). For the same molecule, the “Ratio IC50” value in series [7] came to 1.6; in series [10], 0.3.

With `CC(C)(C)c1ccc(/C=N/Nc2ncnc3sc4c(c23)CCCC4)cc1`, the GI50 in [1] amounted to 21.9 µM; in series [2], 6.4 µM; in [6] it was 15.7 µM; in series [9], 6.4 µM; in series [12] it was 6.3 µM; in series [14], 23.2 µM. This molecule yielded a GI50 in series [15] of 30.3 µM. Further, the IC50 in series [3] was 13.7 µM; in series [4] it was 1.7 µM; in [8] it was 11.2 µM; in series [11], 6.6 µM. In series [5], this molecule returned an MIC above 250 µM. Further, the “Ratio IC50” value in series [7] is given as 3.8. Besides, the selectivity ratio in series [13] came out at 1.2.

Turning to `NNc1ncnc2sc3c(c12)CCCC3`, the GI50 is 13.9 µM in [1]; 9.6 µM in series [2]; 20.7 µM in series [6]; 11.1 µM in [9]; 9 µM in series [12]; below 4.5 µM in series [14]. In series [15], the GI50 was 24.6 µM. Moreover, the half-inhibitory concentration (IC50) amounted to 40.9 µM in [3], 54.4 µM in series [4], 21.3 µM in [8] and 33.8 µM in [11]. In series [5], this molecule returned an MIC of 374 µM (≈ 82.5 µg/mL). Also, the “Ratio IC50” value in series [7] is reported as 0.6; in series [10] it was 0.3. Besides, the selectivity ratio in series [13] is 1.9.

For `Fc1ccc(/C=N/Nc2ncnc3sc4c(c23)CCCC4)cc1`, the GI50 turned out to be 13.9 µM in series [1]; 9.4 µM in series [2]; 10.4 µM in [6]; 8.9 µM in series [9]; 7.4 µM in [12]; 20.5 µM in [14]. The molecule further showed a GI50 in [15] of 17.6 µM. Further, the IC50 in [3] was determined as 18.4 µM; in series [4], 9.7 µM; in [8] it was 18.4 µM; in [11], 9.4 µM. In series [5], this molecule came in with an MIC of 71.1 µM (≈ 23.2 µg/mL). Also, the entries for the “Ratio IC50” value in [7] and in series [10] were 1 and 0.6, respectively. In series [13], the selectivity ratio stood at 1.

For `CC(C)c1ccc(/C=N/Nc2ncnc3sc4c(c23)CCCC4)cc1`, the GI50 amounted to 10.8 µM in series [1]; 5.9 µM in series [2]; 5.9 µM in series [6]; 4.1 µM in series [9]; 5.2 µM in [12]; 9.4 µM in [14]. In addition, it took 17.8 µM to inhibit growth in series [15] by half (GI50). Also, the IC50 in series [3] turned out to be 2.9 µM; in series [4], 3.6 µM; in series [8], 5.2 µM; in series [11] it was 8.4 µM. In [5], this molecule returned a minimal inhibitory concentration (MIC) above 250 µM. Also, the “Ratio IC50” value in [7] was determined as 2.3. For the same molecule, the selectivity ratio in [13] was 0.5.

For the molecule `C(=N\Nc1ncnc2sc3c(c12)CCCC3)/c1ccccc1`, the GI50 in [1] was 20 µM; in series [2], 18.2 µM; in series [6], 12.5 µM; in [9], 13.2 µM; in series [12], 11.2 µM; in series [14], 21.7 µM. In addition, in series [15], halving of growth (GI50) required 18 µM. Besides, the IC50 in series [3] stood at 25.9 µM; in [4], 43.7 µM; in series [8], 14.4 µM; in series [11], 28.3 µM. The molecule further came in with an MIC in series [5] of 75.9 µM (≈ 23.4 µg/mL). For the same molecule, the “Ratio IC50” value in [7] was found to be 0.6; in series [10], 0.5. Further, the selectivity ratio in [13] was 1.8.

Turning to `COc1cccc(/C=N/Nc2ncnc3sc4c(c23)CCCC4)c1`, the GI50 worked out at 17.7 µM in series [1]; 16.2 µM in series [2]; 7.4 µM in series [6]; 15.5 µM in series [9]; 14.9 µM in [12]; 17.6 µM in series [14]. For the same molecule, the GI50 in series [15] turned out to be 143 µM. In addition, the IC50 in series [3] was determined as 14.8 µM; in series [4] it was 36.1 µM; in [8] it was 16.9 µM; in series [11], 16.3 µM. This molecule also had an MIC in [5] of 119 µM (≈ 40.4 µg/mL). The “Ratio IC50” value in [7] is recorded as 0.5; in [10], 0.6. For the same molecule, the selectivity ratio in [13] amounted to 0.9.

For the molecule `C(=N\Nc1ncnc2sc3c(c12)CCCC3)/c1ccc2c(c1)OCO2`, the GI50 was above 250 µM in [1]; above 250 µM in [2]; above 250 µM in series [6]; above 250 µM in series [9]; 117 µM in [12]; above 250 µM in series [14]. The GI50 in [15] is above 250 µM. Further, the IC50 in [3] came to 17 µM; in series [4], 29.4 µM; in series [8], 22.8 µM; in [11] it was 16.3 µM. The molecule also showed an MIC in series [5] above 250 µM. The “Ratio IC50” value in [7] is 0.6. The selectivity ratio in [13] turned out to be 0.7.

Turning to `C=CCOc1cc(/C=N/Nc2ncnc3sc4c(c23)CCCC4)cc(OCC=C)c1Br`, the GI50 in series [1] was below 2 µM; in series [2], 3.1 µM; in series [6], 3.9 µM; in [9], 3.9 µM; in series [12], 3.8 µM; in series [14], below 2 µM. The molecule further gave a GI50 in series [15] of 12.8 µM. Moreover, the IC50 in series [3] is 6 µM; in series [4] it was 5.3 µM; in series [8], 15.4 µM; in series [11] it was 3.5 µM. Besides, in series [5], the MIC was above 200 µM. In addition, in [7], the “Ratio IC50” value amounted to 0.7. Moreover, the selectivity ratio in [13] came out at 0.4.

For `C(=N\Nc1ncnc2sc3c(c12)CCCC3)/c1ccc2ccccc2c1`, the GI50 in [1] is 24.1 µM; in series [2], 20.8 µM; in series [6], 19.4 µM; in [9], 6.2 µM; in series [12] it was 9.3 µM; in series [14], 27.9 µM. For the same molecule, in [15], the 50% growth inhibitory concentration (GI50) came out at 35.2 µM. In addition, the 50% inhibitory concentration (IC50) was 13.9 µM in series [3], 39 µM in [4], 13.3 µM in series [8] and 15.9 µM in [11]. In series [5], this molecule displayed an MIC above 250 µM. Moreover, the “Ratio IC50” value in [7] is 0.4. Besides, in [13], the selectivity ratio was 1.1.

These data come from ChEMBL document CHEMBL1156236, “Trypanoside, anti-tuberculosis, leishmanicidal, and cytotoxic activities of tetrahydrobenzothienopyrimidines” (Bioorg Med Chem, 2010).
